Measured values taken from US10738024B2, “Compounds for treatment of angiogenesis-mediated diseases” (Indiana University Research and Technology Corporation, priority 2013, dated 2020).

Legend:
HUVECs = assay: ALAMARBLUE proliferation assay in HUVECs; type: cell-based, human; conditions: for GI50: Homo sapiens, HUVEC, 48 h, 50% growth inhibitory concentration, alamarBlue
Method: (§1) Particularly, in a 96-well clear bottom black plate, cells (2,500 cells per well) were seeded in a total volume of 100 μL EGM-2. After 24 hours of incubation of the plate at 37° C. and 5% CO2, a DMSO solution of synthetic cremastranone (1) or SH-11052 (2) was added in the concentration range of 0.5 nM to 500 μM (final DMSO concentration=1%). The plate was then further incubated for 48 hours before adding 11.1 μL of ALAMARBLUE® reagent to each well. Four hours after the addition of ALAMARBLUE®, fluorescence readings with excitation and emission wavelengths of 560 nm and 590 nm, respectively, were taken and the data were analyzed in GraphPad Prism software (v. 6.0). Dose response curves were generated and the GI50 values were calculated using the following equation: Y=100/(1+10^(X−Log GI50)).
(§2) For proliferation assays, cells (2500 per well) were seeded in a 96-well clear bottom black polystyrene plate in a total volume of 100 μL. HUVECs and HRECs were grown in EGM-2 and CSC+ media respectively, while 92-1 and Y79 cells were maintained in RPMI+10% FBS, penicillin/streptomycin and RB medium (IMDM+10% FBS+penicillin/streptomycin+10 μg/mL insulin+55 μM β-mercaptoethanol) respectively. After 24 hours of incubation of the plate at 37° C., the compounds were dissolved in DMSO and added in the concentration range of 500 μM to 0.5 nM. The plate was then incubated at 37° C. and 5% CO2 conditions for 48 hours before adding 11.1 μL of alamar blue reagent for each well. Four hours after the addition of ALAMARBLUE® reagent, fluorescence readings with excitation and emission wavelengths of 560 nm and 590 nm respectively were taken and the data was analyzed in GraphPad Prism software. The dose response curves were generated and the GI50 values were calculated using the equation: Y=100/(1+10^(X−Log GI50)) (Table 1).

HRECs = assay: ALAMARBLUE proliferation assay in HRECs; type: cell-based, human; conditions: for GI50: Homo sapiens, HREC, 50% growth inhibitory concentration, 48 hours, alamarBlue, read-out: GI50 HREC
Method: as §1, §2

[1] = tested on: Y-79 retinoblastoma cells; assay: ALAMARBLUE proliferation assay in Y-79 retinoblastoma cells; type: cell-based; conditions: 50% growth inhibitory concentration, 48 hours
Method: as §2

[2] = tested on: 92-1 uveal melanoma cells; assay: ALAMARBLUE proliferation assay in 92-1 uveal melanoma cells; type: cell-based; conditions: 50% growth inhibitory concentration, 48 hours, alamarBlue
Method: as §2

Row | SMILES | GI50 (HUVECs) | in vitro anti-proliferative activity in HUVECs (HUVECs; result in words, FIGS. 6A, 6C) | GI50 (HRECs) | in vitro anti-proliferative activity in HRECs (HRECs; result in words, FIGS. 6B, 6D, 14) | GI50 [1] | GI50 [2]
1 | COc1ccc(CC2COc3cc(O)c(OC)c(O)c3C2=O)cc1O (racemic) [Compound 1, 5,7-dihydroxy-3-(3-hydroxy-4-methoxybenzyl)-6-methoxychroman-4-one] | 0.377 µM | demonstrated in vitro anti-proliferative activity | 0.217 µM | demonstrated in vitro anti-proliferative activity | 47 µM | 9.8 µM
2 | COc1ccc(/C=C/C(=O)c2c(O)cc(OC)c(OC)c2OC)cc1OCc1ccccc1 [Compound 3a, (E)-3-(3′-benzyloxy-4′-methoxyphenyl)-1-(6-hydroxy-2,3,4-trimethoxyphenyl) prop-2-en-1-one] | 94 µM |  | > 100 µM |  | > 100 µM | > 100 µM
3 | COc1cc(O)c(C(=O)/C=C/c2ccccc2)c(OC)c1OC [Compound 3b] | > 100 µM |  | > 100 µM |  | > 100 µM | > 100 µM
4 | COc1ccc(CCC(=O)c2c(O)cc(OC)c(OC)c2OC)cc1O [Compound 4a, 1-(6-hydroxy-2,3,4-trimethoxyphenyl)-3-(3′-hydroxy-4′-methoxyphenyl) propan-1-one] | 102 µM |  | 68 µM |  | 68 µM | > 100 µM
5 | COc1ccc(CCC(=O)c2c(O)cc(OC)c(OC)c2OC)cc1OC [Compound 4c] | 74 µM |  | 123 µM |  | > 100 µM | > 100 µM
6 | COc1ccc(CC2(CO)COc3cc(OC)c(OC)c(OC)c3C2=O)cc1O (stereo not drawn) [Compound 5, 3-(3′-hydroxy-4′-methoxybenzyl)-3-(hydroxymethyl)-5,6,7-trimethoxychroman-4-one] | > 100 µM |  | > 100 µM |  | > 100 µM | > 100 µM
7 | COc1ccc(CC2COc3cc(OC)c(OC)c(OC)c3C2=O)cc1O (stereo not drawn) [Compound 6a, 3-(3′-hydroxy-4′-methoxybenzyl)-5,6,7-trimethoxychroman-4-one] | > 100 µM |  | > 100 µM |  | > 100 µM | > 100 µM
8 | COc1cc2c(c(OC)c1OC)C(=O)C(Cc1ccccc1)CO2 (stereo not drawn) [Compound 6b, 3-benzyl-5,6,7-trimethoxychroman-4-one] | > 100 µM |  | > 100 µM |  | > 100 µM | > 100 µM
9 | COC(=O)c1cc(CC2COc3cc(OC)c(OC)c(OC)c3C2=O)ccc1OC (stereo not drawn) [Compound 6d] | 27 µM |  | 13 µM |  | 40 µM | > 250 µM
10 | COc1cc2c(c(OC)c1OC)C(=O)C(Cc1ccc(O)c(O)c1)CO2 (stereo not drawn) [Compound 6e] | 77 µM |  | > 250 µM |  | 98 µM | > 250 µM
11 | COc1ccc(CC2COc3cc(OC)c(OC)c(OC)c3C2=O)cc1C(=O)O (stereo not drawn) [Compound 6f] | 92 µM |  | 131 µM |  | > 250 µM | > 250 µM
12 | C=C(Cc1ccc(OC)c(O)c1)C(=O)c1c(O)cc(OC)c(OC)c1OC [Compound 7, 1-(6-hydroxy-2,3,4-trimethoxyphenyl)-2-(3′-hydroxy-4′-methoxybenzyl)prop-2-en-1-one] | 1.4 µM |  | 10 µM |  | 8 µM | 17 µM
13 | COc1ccc(CC2COc3cc(OC)c(OC)c(O)c3C2=O)cc1O (stereo not drawn) [Compound 8a] | 44 µM |  | > 100 µM |  | > 100 µM | > 100 µM
14 | COc1cc2c(c(O)c1OC)C(=O)C(Cc1ccccc1)CO2 (stereo not drawn) [Compound 8b, 3-benzyl-5-hydroxy-6,7-dimethoxychroman-4-one] | 40 µM |  | > 100 µM |  | > 100 µM | > 100 µM
15 | COc1ccc(CC2COc3cc(OC)c(O)c(O)c3C2=O)cc1OC(=O)c1ccccc1 (stereo not drawn) [Compound 8c] | > 100 µM |  | > 100 µM |  | > 50 µM | 51 µM
16 | COc1ccc(CC2COc3cc(O)c(O)c(O)c3C2=O)cc1O (stereo not drawn) [Compound 8d, 5,6,7-trihydroxy-3-(3-hydroxy-4-methoxybenzyl)chroman-4-one] | 124 µM |  | 135 µM |  | > 500 µM | > 500 µM
17 | COc1ccc(Cc2coc3cc(OC)c(OC)c(OC)c3c2=O)cc1O [Compound 9a, 3-(3′-hydroxy-4′-methoxybenzyl)-5,6,7-trimethoxy-4H-chromen-4-one] | > 100 µM |  | > 100 µM |  | > 100 µM | > 100 µM
18 | COc1c(O)cc2occ(Cc3ccccc3)c(=O)c2c1O [Compound 9b, 3-benzyl-5,7-dihydroxy-6-methoxy-4H-chromen-4-one] | > 100 µM |  | > 100 µM |  | > 100 µM | > 100 µM

Row | SMILES | GI50 (HUVECs) | in vitro anti-proliferative activity in HUVECs (HUVECs; result in words, FIGS. 6A, 6C) | GI50 (HRECs) | in vitro anti-proliferative activity in HRECs (HRECs; result in words, FIGS. 6B, 6D, 14) | GI50 [1] | GI50 [2]
19 | COc1cc2c(c(OC)c1OC)C(=O)CCO2 [Compound 10a, 5,6,7-trimethoxychromanone] | > 100 µM |  | > 100 µM |  | > 500 µM | > 500 µM
20 | COc1ccc(/C=C2\COc3cc(OC)c(OC)c(OC)c3C2=O)cc1O [Compound 11a, (E)-3-(3′-hydroxy-4′-methoxybenzylidene)-5,6,7-trimethoxychroman-4-one] | 8 µM |  | 46 µM |  | 44 µM | 0.22 µM
21 | COc1ccc(/C=C2\COc3cc(OC)c(OC)c(OC)c3C2=O)cc1OCc1ccccc1 [Compound 11b, (E)-3-(3′-benzyloxy-4′-methoxybenzylidene)-5,6,7-trimethoxychroman-4-one] | 4 µM |  | 6 µM |  | 15 µM | 
22 | C=CCOc1cc(/C=C2\COc3cc(OC)c(OC)c(OC)c3C2=O)ccc1OC [Compound 11c, (E)-3-(3′-allyloxy-4′-methoxybenzylidene)-5,6,7-trimethoxychroman-4-one] | 11 µM |  | 4 µM |  | 3 µM | 3.2 µM
23 | COc1cc(/C=C2\COc3cc(OC)c(OC)c(OC)c3C2=O)ccc1OCc1ccccc1 [Compound 11d] | 114 µM |  | 53 µM |  | 39 µM | 23 µM
24 | COc1cc(/C=C2\COc3cc(OC)c(OC)c(OC)c3C2=O)ccc1O [Compound 11e] | 6 µM |  | 4 µM |  | 23 µM | 55 µM
25 | COc1cccc(/C=C2\COc3cc(OC)c(OC)c(OC)c3C2=O)n1 [Compound 11f] | 16 µM |  | 17 µM |  | 25 µM | 25 µM
26 | C#CCOc1cc(/C=C2\COc3cc(OC)c(OC)c(OC)c3C2=O)ccc1OC [Compound 11g] | 21 µM |  | 39 µM |  | 32 µM | 310 µM
27 | COc1ccc(/C=C2\COc3cc(OC)c(OC)c(OC)c3C2=O)cc1[N+](=O)[O-] [Compound 11h] | 11 µM |  | 4 µM |  | 44 µM | 13 µM
28 | COc1cc2c(c(OC)c1OC)C(=O)/C(=C/c1ccc(OCc3ccccc3)cc1)CO2 [Compound 11i] | 284 µM |  | > 500 µM |  | 465 µM | 152 µM
29 | COc1cc2c(c(OC)c1OC)C(=O)/C(=C/c1ccc([N+](=O)[O-])cc1)CO2 [Compound 11j] | 6 µM |  | 14 µM |  | 9 µM | 23 µM
30 | COc1ccc(/C=C2\COc3cc(OC)c(OC)c(OC)c3C2=O)cc1OCCN1CCCC1 [Compound 11k, (E)-5,6,7-trimethoxy-3-(4-methoxy-3-(2-(pyrrolidin-1-yl)ethoxy)benzylidene)chroman-4-one] | 3.5 µM |  | 0.185 µM |  | 3.2 µM | 6 µM
31 | COc1ccc(/C=C2\COc3cc(OC)c(OC)c(OC)c3C2=O)cc1OCC(=O)OC(C)(C)C [Compound 11l] | 27 µM |  | > 500 µM |  | 21 µM | > 500 µM
32 | COc1ccc(/C=C2\COc3cc(OC)c(OC)c(OC)c3C2=O)cc1OCC(=O)O [Compound 11m] | > 500 µM |  | > 500 µM |  | > 500 µM | > 500 µM
33 | COc1cc2c(c(OC)c1OC)C(=O)/C(=C/c1ccc(O)c(O)c1)CO2 [Compound 11n] | 4.1 µM |  | 6.4 µM |  | 13 µM | 13.7 µM
34 | COC(=O)c1cc(/C=C2\COc3cc(OC)c(OC)c(OC)c3C2=O)ccc1O [Compound 11o] | 2 µM |  | 4.7 µM |  | 2.3 µM | 8.2 µM
35 | COc1cc2c(c(OC)c1OC)C(=O)/C(=C/c1ccc(O)c(F)c1)CO2 [Compound 11p] | 9 µM |  | 19 µM |  | 22 µM | 30 µM
